According to PubChem BioAssay AID1963834 (Molecular Pharmacology Branch, DTP, NCI, 2024):
pIC50: −log10 of the molar value.

System: 873145-292-R-J1-PDC complex spheroid viability
Test: Anticancer human tumor 873145-292-R-J1-PDC patient-derived renal clear cell carcinoma cell line growth inhibition [POLQ]
Conditions: for pIC50: curve of first compound; for viability, T/C: stronger effect = lower value
How it was run: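 PDC + HUVEC + MSC complex spheroids; POLQ inhibitors ± partner drugs; top conc. at/near clinical Cmax, else 10 microM (SN-38 1 microM), half-log dilutions; 37 degrees C, 5% CO2.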

[1] = second compound 0.0316 µM, first compound 0.0316 µM
[2] = second compound 0.0316 µM, first compound 0.1 µM
[3] = second compound 0.0316 µM, first compound 0.316 µM
[4] = second compound 0.0316 µM, first compound 1 µM
[5] = second compound 0.0316 µM, first compound 3.16 µM
[6] = second compound 0.0316 µM, first compound 10 µM
[7] = second compound 0.1 µM, first compound 0.0316 µM
[8] = second compound 0.1 µM, first compound 0.1 µM
[9] = second compound 0.1 µM, first compound 0.316 µM
[10] = second compound 0.1 µM, first compound 1 µM
[11] = second compound 0.1 µM, first compound 3.16 µM
[12] = second compound 0.1 µM, first compound 10 µM
[13] = second compound 0.316 µM, first compound 0.0316 µM
[14] = second compound 0.316 µM, first compound 0.1 µM
[15] = second compound 0.316 µM, first compound 0.316 µM
[16] = second compound 0.316 µM, first compound 1 µM
[17] = second compound 0.316 µM, first compound 3.16 µM
[18] = second compound 0.316 µM, first compound 10 µM
[19] = second compound 1 µM, first compound 0.0316 µM
[20] = second compound 1 µM, first compound 0.1 µM
[21] = second compound 1 µM, first compound 0.316 µM
[22] = second compound 1 µM, first compound 1 µM
[23] = second compound 1 µM, first compound 3.16 µM
[24] = second compound 1 µM, first compound 10 µM
[25] = second compound 3.16 µM, first compound 0.0316 µM
[26] = second compound 3.16 µM, first compound 0.1 µM
[27] = second compound 3.16 µM, first compound 0.316 µM
[28] = second compound 3.16 µM, first compound 1 µM
[29] = second compound 3.16 µM, first compound 3.16 µM
[30] = second compound 3.16 µM, first compound 10 µM
[31] = second compound 10 µM, first compound 0.0316 µM
[32] = second compound 10 µM, first compound 0.1 µM
[33] = second compound 10 µM, first compound 0.316 µM
[34] = second compound 10 µM, first compound 1 µM
[35] = second compound 10 µM, first compound 3.16 µM
[36] = second compound 10 µM, first compound 10 µM
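Further: spheroids exposed to compounds for 7 days before viability readout.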
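Wherever viability, T/C is given: luminescence signal used as surrogate for viable cell content; 100% = DMSO vehicle control viability.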

CCc1cc2c(N3CCc4c(cc(Cn5ccnc5)cc4-c4cn(C)nc4C(F)(F)F)C3=O)ccnc2c(OC)n1 + Nc1ccc(C#CCN(C(=O)Cc2ncc(C(F)(F)F)cc2C(F)(F)F)c2ccc(F)cc2)nn1
pIC50 (second compound 0.0316 µM): < 5.00 | pIC50 (second compound 0.1 µM): < 5.00 | pIC50 (second compound 0.316 µM): < 5.00 | pIC50 (second compound 1 µM): < 5.00 | pIC50 (second compound 3.16 µM): < 5.00 | pIC50 (second compound 10 µM): < 5.00 | viability, T/C [1]: 97.9% | viability, T/C [2]: 106% | viability, T/C [3]: 87.8% | viability, T/C [4]: 89.5% | viability, T/C [5]: 81.3% | viability, T/C [6]: 80.9% | viability, T/C [7]: 98.7% | viability, T/C [8]: 110% | viability, T/C [9]: 82.9% | viability, T/C [10]: 92.8% | viability, T/C [11]: 102% | viability, T/C [12]: 69.5% | viability, T/C [13]: 101% | viability, T/C [14]: 111% | viability, T/C [15]: 82.3% | viability, T/C [16]: 82.5% | viability, T/C [17]: 101% | viability, T/C [18]: 70.8% | viability, T/C [19]: 92.7% | viability, T/C [20]: 89.5% | viability, T/C [21]: 79.6% | viability, T/C [22]: 87.6% | viability, T/C [23]: 94.3% | viability, T/C [24]: 72.2% | viability, T/C [25]: 99.8% | viability, T/C [26]: 96.7% | viability, T/C [27]: 82.2% | viability, T/C [28]: 99.6% | viability, T/C [29]: 80.9% | viability, T/C [30]: 74.1% | viability, T/C [31]: 106% | viability, T/C [32]: 96.5% | viability, T/C [33]: 97.8% | viability, T/C [34]: 104% | viability, T/C [35]: 84.9% | viability, T/C [36]: 77.7%

COc1ccc([C@@H](O)c2cc(-c3ncnc4cc(N5CCOCC5)ccc34)c(F)cc2Cl)nn1 + Nc1ccc(C#CCN(C(=O)Cc2ncc(C(F)(F)F)cc2C(F)(F)F)c2ccc(F)cc2)nn1
pIC50 (second compound 0.0316 µM): 5.33 | pIC50 (second compound 0.1 µM): 5.29 | pIC50 (second compound 0.316 µM): 5.29 | pIC50 (second compound 1 µM): 5.21 | pIC50 (second compound 3.16 µM): 5.23 | pIC50 (second compound 10 µM): < 5.00 | viability, T/C [1]: 102% | viability, T/C [2]: 91.9% | viability, T/C [3]: 86.2% | viability, T/C [4]: 64.2% | viability, T/C [5]: 54.1% | viability, T/C [6]: 44.4% | viability, T/C [7]: 92.8% | viability, T/C [8]: 91.4% | viability, T/C [9]: 82.9% | viability, T/C [10]: 64.9% | viability, T/C [11]: 58.1% | viability, T/C [12]: 42.2% | viability, T/C [13]: 90.8% | viability, T/C [14]: 114% | viability, T/C [15]: 76.1% | viability, T/C [16]: 67.3% | viability, T/C [17]: 60.7% | viability, T/C [18]: 41.1% | viability, T/C [19]: 92.4% | viability, T/C [20]: 85.4% | viability, T/C [21]: 92.1% | viability, T/C [22]: 78.6% | viability, T/C [23]: 59.8% | viability, T/C [24]: 43% | viability, T/C [25]: 99.5% | viability, T/C [26]: 93.6% | viability, T/C [27]: 81.4% | viability, T/C [28]: 74% | viability, T/C [29]: 51% | viability, T/C [30]: 47.3% | viability, T/C [31]: 104% | viability, T/C [32]: 105% | viability, T/C [33]: 86.5% | viability, T/C [34]: 81% | viability, T/C [35]: 60% | viability, T/C [36]: 53.6%

Cn1ncnc1[C@H]1c2n[nH]c(=O)c3cc(F)cc(c23)N[C@@H]1c1ccc(F)cc1 + Nc1ccc(C#CCN(C(=O)Cc2ncc(C(F)(F)F)cc2C(F)(F)F)c2ccc(F)cc2)nn1
pIC50 (second compound 0.0316 µM): < 7.00 | pIC50 (second compound 0.1 µM): < 7.00 | pIC50 (second compound 0.316 µM): < 7.00 | pIC50 (second compound 1 µM): < 7.00 | pIC50 (second compound 3.16 µM): < 7.00 | pIC50 (second compound 10 µM): < 7.00 | viability, T/C (second compound 0.0316 µM, first compound 0.000316 µM): 124% | viability, T/C (second compound 0.0316 µM, first compound 0.001 µM): 103% | viability, T/C (second compound 0.0316 µM, first compound 0.00316 µM): 90.9% | viability, T/C (second compound 0.0316 µM, first compound 0.01 µM): 99.3% | viability, T/C [1]: 106% | viability, T/C [2]: 104% | viability, T/C (second compound 0.1 µM, first compound 0.000316 µM): 105% | viability, T/C (second compound 0.1 µM, first compound 0.001 µM): 99.3% | viability, T/C (second compound 0.1 µM, first compound 0.00316 µM): 107% | viability, T/C (second compound 0.1 µM, first compound 0.01 µM): 91.8% | viability, T/C [7]: 102% | viability, T/C [8]: 99.6% | viability, T/C (second compound 0.316 µM, first compound 0.000316 µM): 97% | viability, T/C (second compound 0.316 µM, first compound 0.001 µM): 108% | viability, T/C (second compound 0.316 µM, first compound 0.00316 µM): 99.2% | viability, T/C (second compound 0.316 µM, first compound 0.01 µM): 96.7% | viability, T/C [13]: 98.8% | viability, T/C [14]: 96.8% | viability, T/C (second compound 1 µM, first compound 0.000316 µM): 94.9% | viability, T/C (second compound 1 µM, first compound 0.001 µM): 100% | viability, T/C (second compound 1 µM, first compound 0.00316 µM): 96.1% | viability, T/C (second compound 1 µM, first compound 0.01 µM): 97.1% | viability, T/C [19]: 95.9% | viability, T/C [20]: 96.3% | viability, T/C (second compound 3.16 µM, first compound 0.000316 µM): 92.1% | viability, T/C (second compound 3.16 µM, first compound 0.001 µM): 108% | viability, T/C (second compound 3.16 µM, first compound 0.00316 µM): 97.2% | viability, T/C (second compound 3.16 µM, first compound 0.01 µM): 95.3% | viability, T/C [25]: 95.8% | viability, T/C [26]: 95.8% | viability, T/C (second compound 10 µM, first compound 0.000316 µM): 107% | viability, T/C (second compound 10 µM, first compound 0.001 µM): 110% | viability, T/C (second compound 10 µM, first compound 0.00316 µM): 108% | viability, T/C (second compound 10 µM, first compound 0.01 µM): 117% | viability, T/C [31]: 107% | viability, T/C [32]: 103%
